{"source": "patent US10213527B2", "about": "“Functionalized titanium binding peptides and implants coated with same” (Ben-Gurion University of the Negev Research and Development …, priority 2012, dated 2019)", "key": {"[1]": {"assay": "HPLC chromatography on TiO2 anatase microparticle column (Example 2)", "format": "binding", "details": "0.4 mg/ml in TBS (10 mM, pH=7.4) loading buffer", "protocol": "A stainless steel (4.6×50 mm) column was packed with TiO2 anatase (Sachtopore NP 10μ/100 Å, particle size/pore size respectively) suspended in methanol. The packed column was washed consecutively with water and 0.1 M NaOH to desorb surface contaminants. The column was then pre-equilibrated with the loading/running buffer. The chromatographic process was performed on a HPLC system (Algient Technologies, 1260 Infinity, Germany). Peptides dissolved in the loading/running buffer (0.4 mg/ml) were sonicated for 10 minutes and centrifuged at […] for 8 minutes and were injected to the TiO2 column at a flow rate of 0.02 ml/min to attain ˜40 minutes retention time for adsorption. 10 mM tris buffered saline pH 7.4 (TBS) was used as adsorption/running media. After 65 minutes, the flow rate was increased to 0.5 ml/min. Elution was carried out by gradients of 200 mM sodium bicarbonate solution pH 7.4 and 0.1 M NaOH. Elution was monitored at 280 nm. All solutions were filtered using 0.2 μm filters (Millipore, Badford, Mass.).\nPeptide adsorption and desorption conditions were characterized by HPLC. A column was packed with micrometer size particles of the TiO2 anatase phase (see Materials and Methods). Tris buffer saline (TBS), pH 7.4, served as a loading buffer. […]"}, "[2]": {"assay": "Chromatography of PpSer on TiO2 anatase column (bicarbonate and NaOH elution gradients)", "format": "binding", "text": "Chromatography on TiO2 Surfaces: as described in Golan Gertler, Gideon Fleminger and Hanna Rapaport. Langmuir 2010, 26(9), 6457-6463, and further illustrated in FIG. 3. Stainless steel (4.6_50 mm) column was packed with TiO2 anatase (Sachtopore NP 10μ/100 A°, particle size/pore size respectively) suspended in methanol. The packed columns were washed consecutively with water and 0.1 M NaOH to desorb surface contaminants. The columns were then pre-equilibrated with the running buffer. Lyophilized peptides were dissolved in the running buffer (0.2 mg/mL) and centrifuged at 5000 g for 5 min prior to injection into the column to remove possible aggregates. The supernatants (100 μL) were injected on to the TiO2 column at a flow rate of 0.02 mL/min to attain 40 min retention time for adsorption. After 65 minutes, the flow rate was increased to 0.5 mL/min. Ten millimolar Tris and phosphate buffer solutions, pH 7.4, were used as adsorption (running) media. In addition, these buffers complemented by 150 mM NaCl (TBS, PBS, respectively) were also examined. Elution was carried out by gradients of the following solutions applied consecutively to the column: 1 M NaCl, 80% acetonitrile, 200 mM sodium phosphate, and 0.1 M NaOH, monitored at 215-280 nm. The chromatograms were obtained at room temperature using 0.2 μm filtered (Millipore, Badford, Mass.) solutions.\nThe peptide dissolved in two different running buffer, Tris buffer saline (TBS) and sodium bicarbonate saline (BCS). The affinity of functional groups to TiO2 from previous works was known to be PO4^−3>HCO3^−>COO^−. (The diagonal line in the chromatography is the elution gradient: 0-200 mM sodium bicarbonate & 0-0.1M NaOH).\nPeptides that bind to TiO2 only through Glutamic acid functional groups will elute in BC gradient, however peptides that bind to TiO2 through pSer functional groups will elute in the NaOH gradient.\nThe idea behind using BCS as running buffer is to block the surface with carbonate ions before the peptide injection."}, "[3]": {"assay": "Calcium-phosphate adsorption on peptide coated TiO2 surfaces (XPS)", "details": "Ca—P solution 24 h at 37° C.; FIG. 17B", "protocol": "Surfaces were incubated in TBS solution for 45 min in room temperature, and then the surfaces were incubated in 0.4 mg ml^−1 peptide-TBS 10 mM solution for 1 hr at room temperature and were dried with nitrogen. Peptide coating were analyzed by XPS.\nThe ability to absorb calcium-phosphate (Ca—P) ions by the different peptide coatings were measured using Ca—P solution. The solution was prepared at physiological pH and contained K2HPO4 (1.0 mM), CaCl2.2H2O (2.5 mM), dissolved consecutively in deionized water at 37° C. and buffered at pH ˜7.4 using 50 mM Trizma™ base and an appropriate volume of 1M HCl. Coated surfaces were incubated in Ca—P solution at 37° C. for 24 h.\nHowever it contradicts the β-cpSer adsorption isotherm result. This phenomenon can be explained by the different surface topography and surface area between TiO2 particles and TiO2 surface, adsorption surface area at adsorption isotherm experiment is 1.123 m^2 and the surface area is 10^−4 m^2. At small surface areas, the difference between peptides' adsorption cannot be observed. In order to examine the influence of the Glu tail on calcified mineralization process, titanium oxide surfaces were coated with pSer peptide or with the control peptides (cpSer or β-cpSer) and incubated for 24 hours inside calcium-phosphate solution (see Materials and Methods). Atomic concentrations of calcium and phosphorus were compared with titanium as measured by XPS."}, "[4]": {"assay": "Adsorption isotherm onto TiO2 particles, Sips equation fitting", "format": "binding", "details": "10 mM TBS pH 7.4, 1 h room temperature; Sips fit", "protocol": "The adsorption of all three peptides to TiO2 particles were measured with peptides solution in a range of concentrations from 0.002 to 0.524 mM in 10 mM TBS solution. TiO2 particles were suspended in TBS 10 mM, pH 7.4, to a final concentration of 1.8 mg/ml. To each test tube containing 0.5 ml of peptide at different concentrations, 0.5 ml of TiO2 particles solution was added. The samples were continuously mixed with a tube rotator for 1 h at room temperature. To precipitate the TiO2 particles, the test tubes were centrifuged at 5000 rpm for 3 minutes and the absorption of the supernatant was measured at 280 nm using a microplate-reader (BioTek instruments). Peptide concentration was determined based on calibration curve of each peptide prepared in TBS solution. In order to describe the adsorption of molecules on TiO2 particles surface the sips equation, also known as the Langmuir-Freundlich equation (1), was used:\n[formula] where S is the amount of adsorbed molecules (mol m^−2), Smax is the maximum amount of molecules adsorbed (mol m^−2), C is their concentration is solution at equilibrium (mM), k is the association coefficient (M^−1) and α is the constant representing this distribution.^30\nPeptide adsorption and desorption conditions were characterized by HPLC. A column was packed with micrometer size particles of the TiO2 anatase phase (see Materials and Methods). […]"}, "[5]": {"assay": "Adsorption of sodium phenyl phosphate dibasic to TiO2 microparticles (solution depletion)", "format": "binding", "design": "Difference in concentration of the solution between the initial and the final one: unit: mg/ml", "details": "TiO2 microparticles 1.8 mg/ml, TBS", "protocol": "Several solutions of sodium phenyl phosphate dibasic with different concentrations, dissolved in the same TBS, were allowed to adsorb to TiO2 microparticles (1.8 mg/ml in 1 ml). Table 6, herein below lists the initial concentrations and the difference in concentration of the solution between the initial and the one following adsorption. According to Table 6, the phenyl phosphate adsorbs only at concentrations lower than 0.25 mg/ml probably because at higher concentrations the compound undergoes some aggregation and stays only in the solution. This adsorption behavior is unusual and therefore no binding affinity constants were determined."}, "[6]": {"details": "BCS (sodium bicarbonate saline) running buffer, FIG. 7B"}}, "note": "Entries after “also recorded” stand apart in the source; their conditions may differ. Non-standard residues stand in square brackets, D forms with d. Residues, ends and D or L forms follow the SMILES beside them. No end group written: not given here. pS = N[C@@H](COP(=O)(O)O)C(=O)O"}
{"compound": "Trp-Glu", "values": [{"measurement": "adsorption to the oxide", "setting": "[1]", "result": "does not adsorb"}]}
{"compound": "O=C(O)CC[C@H](NC(=O)[C@H](CCC(=O)O)NC(=O)[C@H](CCC(=O)O)NC(=O)[C@H](CCC(=O)O)NC(=O)[C@H](CCC(=O)O)NC(=O)CNC(=O)CNC(=O)CNC(=O)[C@H](Cc1c[nH]c2ccccc12)NC(=O)[C@H](COP(=O)(O)O)NC(=O)[C@H](Cc1c[nH]c2ccccc12)NC(=O)[C@H](COP(=O)(O)O)NC(=O)[C@@H]1CCCN1)C(=O)O", "note": "[PpSer, Pro-pSer-Trp-pSer-Trp-(Gly)3-(Glu)5] (H-P[pS]W[pS]WGGGEEEEE-OH; N-terminus and C-terminus assumed)", "values": [{"measurement": "fraction of the peptide able to displace the carbonate ions and bind TiO2 through pSer", "setting": "[2]; [6]", "result": "⅔ and two-thirds"}, {"measurement": "fraction of the peptide that can't displace the carbonate ions, bonded to them, eluted at BC gradient", "setting": "[2]; [6]", "result": "⅓ and about one third"}, {"measurement": "mode of binding to TiO2 on the column", "setting": "[2]; TBS running buffer, 10 mM pH 7.4, FIG. 7A", "result": "bonded to TiO2 through pSer functional groups"}]}
{"compound": "Pro-pSer-Phe-pSer-Trp-(Gly)3 (P[pS]F[pS]WGGG) [cpSer, control peptide lacking the stretch of the Glu residues]", "values": [{"measurement": "calcium and phosphate adsorbed by coated surfaces (atomic ratio of P and Ca to Ti)", "setting": "[3]", "result": "approximately the same calcium and phosphate concentrations"}]}
{"compound": "Pro-Ser(phos)-Ser(phos)-Phe-Trp-(Gly)3 (P[pS][pS]FWGGG) [β-cpSer]", "values": [{"measurement": "calcium and phosphate adsorbed by coated surfaces (atomic ratio of P and Ca to Ti)", "setting": "[3]", "result": "approximately the same calcium and phosphate concentrations"}, {"measurement": "Smax, maximum amount of molecules adsorbed to TiO2 surface", "setting": "[4]", "result": "7.48E−7", "unit": "mol · m^−2"}]}
{"compound": "O=P([O-])([O-])Oc1ccccc1.[Na+].[Na+]", "note": "[sodium phenyl phosphate dibasic]", "values": [{"measurement": "Difference in concentration of the solution between the initial and the final one", "setting": "[5]; 0.0625 mg/ml in adsorbing solution", "result": 0.02365}, {"measurement": "Difference in concentration of the solution between the initial and the final one", "setting": "[5]; 0.125 mg/ml in adsorbing solution", "result": 0.02083}, {"measurement": "Difference in concentration of the solution between the initial and the final one", "setting": "[5]; 0.25 mg/ml in adsorbing solution", "result": 0.008776}, {"measurement": "Difference in concentration of the solution between the initial and the final one", "setting": "[5]; 0.5 mg/ml in adsorbing solution", "result": "~0"}, {"measurement": "Difference in concentration of the solution between the initial and the final one", "setting": "[5]; 1 mg/ml in adsorbing solution", "result": "~0"}, {"measurement": "concentrations at which the compound adsorbs to TiO2 microparticles", "setting": "[5]", "result": "lower than 0.25 mg/ml"}]}
{"compound": "Pro-Ser(phos)-Phe-Ser(phos)-Trp-(Gly)3-(Glu)5 (P[pS]F[pS]WGGGEEEEE) [pSer]", "values": [{"measurement": "calcium and phosphate adsorbed by coated surfaces (atomic ratio of P and Ca to Ti)", "setting": "[3]", "result": "significantly higher calcium and phosphate concentration; also recorded: adsorbs more Ca and P ions"}]}
